The assay deals with MC38-SIY tumor cells. Put plainly: IFNγ-ELISpot of splenocytes from mice implanted with PRR agonist-coated tumor cells. The assay is classed as in vivo. As to the method: Tumor cell lines were cultured at 37° C. and 5% CO2 in DMEM (Gibco) supplemented with 10% FBS (Atlanta Biologicals), 1% penicillin/streptomycin (Gibco), and 1×HEPES (Gibco). Tumor cells were harvested by trypsinization (Gibco) and washed 3 times with PBS (Gibco). Cells were resuspended in PBS, and 2×10^6 tumor cells were injected subcutaneously into the flanks of mice. For experiments with pattern recognition receptor (PRR) agonist coating, 2×10^6 tumor cells were resuspended with 50 μg naked Poly(I:C) HMW (InvivoGen), DMXAA (InvivoGen), or Pam2CSK4 (InvivoGen) in PBS and injected subcutaneously into the flanks of mice. All PRR agonists were added to cells without a transfection reagent. For experiments with fixed tumor cells, the cells were fixed with 4% paraformaldehyde (Electron Microscopy Sciences) for 10 minutes at RT, washed twice and resuspended with PBS, and 2×10^6 tumor cells were injected subcutaneously into the flanks of mice. Tumor area measurements (calculated as length×width) were collected 2-3 times a week until the endpoint of the study. Data not shown but available upon request—Details on experimental cohorts, the raw data, as well as the power calculations for all tumor outgrowth experiments.
ELISpot plates (EMD Millipore) were coated overnight at 4° C. with anti-IFNγ (BD Biosciences). Plates were washed and blocked with DMEM supplemented with 10% FBS, 1% penicillin/streptomycin, and 1×HEPES for 2 hours at room temperature (RT). Spleens were harvested from mice at day 5 or day 7 post-tumor inoculation and mashed through a 70 μm filter with a 1 mL syringe plunger to generate a single cell suspension. Red blood cells were lysed with 500 μL of ACK Lysing Buffer (Gibco) on ice for 2 minutes. Splenocytes were washed 3 times with chilled PBS and 1×10^6 cells were assayed per well in the presence or absence of 160 nM SIY peptide or 100 ng/mL PMA (Sigma-Aldrich) and 1 μg/mL ionomycin (Sigma-Aldrich) as a positive control. Plates were developed the next day using the BD mouse IFNγ-ELISpot kit, following manufacturer's protocol.

On to “polyinosinic-polycytidylic acid [Poly(I:C)]”, for which the “induction of antigen-specific T cell responses (IFNγ-ELISpot)” value (Poly(I:C)-coated 4% PFA-fixed MC38-SIY tumor cells) was “failed to induce any antigen-specific T cell responses”. For the same substance, the “antigen-specific T cell responses restored, as share of the priming responses observed in WT mice (IFNγ-ELISpot)” value (Poly(I:C)-coated MC38-SIY tumor cells implanted in Batf3−/− mice, day 7 post-tumor inoculation, 50 μg per 2×10^6 cells) is recorded as 45.0%. Further, the “restoration of T cell responses (IFNγ-ELISpot)” value (Poly(I:C)-coated MHC class I-deficient (β2M−/−) MC38-SIY tumor cells, Batf3−/− mice) is listed as “no restoration”.

These data come from patent US12061186B2, “Compositions and methods for using cross-dressing to enhance anti-tumor immune responses” (Massachusetts Institute of Technology, priority 2020, dated 2024).
